Like-named read-outs stand apart in the source and are kept apart here.
How the values were obtained:
Src kinsase = conditions: cited from earlier work
[1] = tested on: refractory NHL and chronic lymphocytic leukemia; conditions: phase II; cited from earlier work
[2] = tested on: FcεR1 and BCR induced Syk activation; conditions: cited from earlier work
JAK kinases = conditions: cited from earlier work
[3] = tested on: lymphoma cell lines and primary human lymphoma samples; conditions: cited from earlier work
JAK1 = biological target: T1, JAK1 (Homo sapiens, UniProt P23458); test: JAK tyrosine phosphorylation activity, Z'-LYTE FRET kinase assay; assay type: biochemical; conditions: catalytic domain recombinant kinase, Tyr6 peptide
T1 construct: 5 μl of catalytic domain recombinant Kinase enzyme+Tyr peptide substrate (Invitrogen, CA); purchased Invitrogen
T1 sequence (P23458 875-1153 limits assumed): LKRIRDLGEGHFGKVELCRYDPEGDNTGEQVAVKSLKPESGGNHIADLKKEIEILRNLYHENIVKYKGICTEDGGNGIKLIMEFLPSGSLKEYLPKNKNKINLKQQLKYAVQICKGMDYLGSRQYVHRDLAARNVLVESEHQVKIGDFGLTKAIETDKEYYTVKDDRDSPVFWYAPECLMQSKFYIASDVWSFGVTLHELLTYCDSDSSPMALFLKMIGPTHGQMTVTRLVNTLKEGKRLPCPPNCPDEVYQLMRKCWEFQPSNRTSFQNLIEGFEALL
Procedure, shortened: (§1)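 Catalytic-domain recombinant kinases with Tyr6 peptide substrate and ATP, 1% DMSO, reacted 1 h at room temperature, then protease development 1 h. FRET read at ex 400 nm, em 445/520 nm; inhibition from percent substrate phosphorylation versus no-inhibitor control, IC50 by 4-parameter logistic fit.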

JAK2 = biological target: T2, JAK2 (Homo sapiens, UniProt O60674); test: as above; assay type: biochemical; conditions: catalytic domain recombinant kinase, Tyr6 peptide
T2 construct: 5 μl of catalytic domain recombinant Kinase enzyme+Tyr peptide substrate (Invitrogen, CA); purchased Invitrogen
T2 sequence (O60674 849-1124 limits assumed): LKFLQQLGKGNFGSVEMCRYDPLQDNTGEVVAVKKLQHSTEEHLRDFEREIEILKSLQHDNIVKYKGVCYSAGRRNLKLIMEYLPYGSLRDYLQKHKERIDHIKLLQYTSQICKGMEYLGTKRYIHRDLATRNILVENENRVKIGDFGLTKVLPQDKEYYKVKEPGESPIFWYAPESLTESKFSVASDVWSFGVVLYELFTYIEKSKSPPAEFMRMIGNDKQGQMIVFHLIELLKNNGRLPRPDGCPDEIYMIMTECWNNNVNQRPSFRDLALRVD
Procedure, shortened: as §1

JAK3 = biological target: T3, JAK3 (Homo sapiens, UniProt P52333); test: as above; assay type: biochemical; conditions: catalytic domain recombinant kinase, Tyr6 peptide
T3 construct: 5 μl of catalytic domain recombinant Kinase enzyme+Tyr peptide substrate (Invitrogen, CA); purchased Invitrogen
T3 sequence (P52333 822-1111 limits assumed): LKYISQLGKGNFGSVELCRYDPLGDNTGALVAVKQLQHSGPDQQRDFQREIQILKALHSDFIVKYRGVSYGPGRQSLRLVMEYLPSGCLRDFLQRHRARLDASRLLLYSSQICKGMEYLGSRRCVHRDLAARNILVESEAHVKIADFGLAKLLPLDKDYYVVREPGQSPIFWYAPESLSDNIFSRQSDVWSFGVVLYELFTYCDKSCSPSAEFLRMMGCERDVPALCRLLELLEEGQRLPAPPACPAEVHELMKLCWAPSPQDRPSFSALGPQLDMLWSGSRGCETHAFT
Procedure, shortened: as §1

[4] = biological target: T4, full length active recombinant SYK enzyme (Homo sapiens, UniProt P43405); test: SYK tyrosine phosphorylation activity, LANCE TR-FRET kinase assay; assay type: biochemical; conditions: 1 nM SYK, 100 μM ATP, 1 hour at room temperature
T4 construct: full length active recombinant SYK enzyme (Millipore, CA); purchased Millipore
Procedure, shortened: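 Full-length active SYK (1 nM) phosphorylates 550 nM biotinylated substrate with 100 μM ATP in Tris pH 7.5, MgCl2, DTT, 3% DMSO, 1 h at room temperature. EDTA stop with Eu-anti-phosphotyrosine/SA-APC TR-FRET detection, 1 h. IC50 by non-linear regression.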

Row | JAK1 IC50 potency class (JAK1) | JAK2 IC50 potency class (JAK2) | JAK3 IC50 potency class (JAK3) | IC50 [4] | IC50 ([4]; read-out: Syk IC50 % Inhibition) [nM] | Structure (SMILES) | activity against Src kinase (Src kinsase) | clinical trial outcome [1] | inhibition of ITAM signaling [2] | activity against JAK kinases (JAK kinases) | effect on BCR signaling ([3]; lymphoma cell lines and primary human lymphoma samples) | apoptosis ([3]; lymphoma cell lines)
1 | – | – | – | – | – | COc1cc(Nc2ncc(F)c(Nc3ccc4c(n3)NC(=O)C(C)(C)O4)n2)cc(OC)c1OC [Compound R406] | not against | favorable results | inhibit ITAM signaling | active | attenuates BCR signaling | resulting in apoptosis
2 | ++ (1.0 uM<IC50<0.10 uM) | +++ (0.10 uM<IC50<0.01 uM) | ++++ (0.01 uM<IC50<0.001 uM) | ++ (1.0 uM<IC50<0.10 uM) | – | CCS(=O)(=O)N1CCN(c2ccc(Nc3ncc(C(N)=O)c(NC4CC4)n3)cc2C#N)CC1 [Compound 48, 2-((3-cyano-4-(4-(ethylsulfonyl)piperazin-1-yl)phenyl)amino)-4-(cyclopropylamino)pyrimidine-5-carboxamide] | – | – | – | – | – | –
3 | ++ (1.0 uM<IC50<0.10 uM) | ++ (1.0 uM<IC50<0.10 uM) | ++ (1.0 uM<IC50<0.10 uM) | – | > 1000 | CCS(=O)(=O)N1CCN(c2ccc(Nc3ncc(C(N)=O)c(NC4CC4)n3)nc2)CC1 [Compound 67, 4-(cyclopropylamino)-2-((5-(4-(ethylsulfonyl)piperazin-1-yl)pyridin-2-yl)amino)pyrimidine-5-carboxamide] | – | – | – | – | – | –
4 | +++ (0.10 uM<IC50<0.01 uM) | +++ (0.10 uM<IC50<0.01 uM) | ++++ (0.01 uM<IC50<0.001 uM) | ++ (1.0 uM<IC50<0.10 uM) | – | NC(=O)c1cnc(Nc2ccc(C3CCN(C(=O)N4CCCC4)CC3)cc2)nc1NC1CC1 [Compound 13, 4-(cyclopropylamino)-2-((4-(1-(pyrrolidine-1-carbonyl)piperidin-4-yl)phenyl)amino)pyrimidine-5-carboxamide] | – | – | – | – | – | –

Reference: US9676756B2 (PORTOLA PHARMACEUTICALS, INC., priority 2012, dated 2017)
